Target: Neuraminidase (Influenza A virus (strain A/Puerto Rico/8/1934 H1N1), UniProt P03468)
Assay: Inhibition of influenza A sialidase in vitro.

Sequence of Neuraminidase (P03468 whole entry): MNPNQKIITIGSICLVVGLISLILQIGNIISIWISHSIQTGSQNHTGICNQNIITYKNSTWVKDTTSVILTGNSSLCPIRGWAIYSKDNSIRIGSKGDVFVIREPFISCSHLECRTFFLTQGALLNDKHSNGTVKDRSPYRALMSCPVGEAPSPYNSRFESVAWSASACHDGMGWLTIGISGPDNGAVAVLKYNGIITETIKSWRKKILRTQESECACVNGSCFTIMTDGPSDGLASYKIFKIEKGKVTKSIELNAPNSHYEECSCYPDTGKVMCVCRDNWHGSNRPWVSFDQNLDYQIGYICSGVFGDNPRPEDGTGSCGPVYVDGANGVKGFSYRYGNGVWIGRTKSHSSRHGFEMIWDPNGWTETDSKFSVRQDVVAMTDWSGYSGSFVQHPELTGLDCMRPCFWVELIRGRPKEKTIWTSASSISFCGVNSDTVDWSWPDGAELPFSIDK

Compound: [C][C][C][C][C]O[C@H]([C][C])[C@@H]1OC(C([O])=O)=[C][C@H](N=C([N])[N])[C@H]1[N]C([C])=O
- IC50: 18.8 nM

Compound: [C]C(=O)[N][C][C]O[C@@H]([C@@H]1OC(C([O])=O)=[C][C@H](N=C([N])[N])[C@H]1[N]C([C])=O)[C@H]([O])[C][O]
- IC50: 18.4 nM

From BindingDB's records for doi:10.1016/s0960-894x(02)00329-3 (Sankyo, 2002)
